Legend:
[1] = system: D-galactosamine-induced liver diseases; test: Pharmacological effect (2) on D-galactosamine-induced liver diseases; assay type: in vivo, SD rats; conditions: D-galactosamine 1 g/kg rat i.p., 23 hours, average of five rats; for Total bilirubin in serum: D-galactosamine alone 1.4; for GPT in serum: D-galactosamine alone 1560; for GOT in serum: D-galactosamine alone 2542
Procedure: Pharmacological effect (2) of PQQ triesters on D-galactosamine-induced liver diseases:
Forty SD rats (male, 7 weeks old, body weight: about 260 g; supplied by Japan Charles River Co.) were divided to eight groups (A-H) each consisting of five rats. All rats were fasted for 18 hours and 1.3 ml of a solution containing 1 mg/ml of PQQ trimethyl ester was orally administered to the rats of group C, 1.3 ml of a solution containing 2 mg/ml of PQQ trimethyl ester was orally administered to the rats of group D, 1.3 ml of a solution containing 3 mg/ml of PQQ trimethyl ester was orally administered to the rats of group E, 1.3 ml of a solution containing 1 mg/ml of PQQ triallyl ester was orally administered to the rats of group F, 1.3 ml of a solution containing 2 mg/ml of PQQ triallyl ester was orally administered to the rats of group G, and 1.3 ml of a solution containing 3 mg/ml of PQQ triallyl ester was orally administered to the rats of group H and furthermore, after lapse of 40 minutes, the same PQQ triesters in the same doses as above were orally administered to respective rats. In these cases, the PQQ triesters were suspended in physiological saline containing 1% Tween 80 and administered to the rats. 1.3 ml of physiological saline was orally administered to the rats of group B in place of PQQ triesters. Furthermore, after lapse of 20 minutes, 1.3 ml of a solution of d-galactosamine in 10 ml of physiological saline was intraperitoneally administered to the rats of groups B-H. Neither PQQ triesters nor D-galactosamine were administered to the rats of group A.
After 23 hours from administration of D-galactosamine, blood was collected from abdominal main artery and serum was obtained by centrifugation therefrom.
GPT, GOT and amount of total bilirubin in the serum were measured by clinical examination reagent (trademark: FUJI DRYCHEMSLIDE manufactured by Fuji Photo Film Co., Ltd.). The results are shown in Table 8 by average value of five rats.

[2] = system: carbon tetrachloride (CCl4)-induced liver diseases; test: Pharmacological activity (2) on carbon tetrachloride (CCl4)-induced liver diseases; assay type: in vivo, SD rats; conditions: CCl4 1 ml/kg rat i.p., 24 hours, average of five rats; for Total bilirubin in serum: CCl4 alone 0.9; for GPT in serum: CCl4 alone 949; for GOT in serum: CCl4 alone 1970
Procedure: Pharmacological activity (2) of PQQ triesters on carbon tetrachloride (CCl4)-induced liver diseases:
Forty SD rats (male, 7 weeks old, body weight: about 260 g; supplied by Japan Charles River Co.) were divided to eight groups (A-H) each consisting of five rats. All rats were fasted for 18 hours and 1.3 ml of a solution containing 2 mg/ml of PQQ trimethyl ester was intraperitoneally administered to the rats of group C, 1.3 ml of a solution containing 10 mg/ml of PQQ trimethyl ester was intraperitoneally administered to the rats of group D, 1.3 ml of a solution containing 20 mg/ml of PQQ trimethyl ester was intraperitoneally administered to the rats of group E, 1.3 ml of a solution containing 2 mg/ml of PQQ triallyl ester was intraperitoneally administered to the rats of group F, 1.3 ml of a solution containing […] was intraperitoneally administered to the rats of group G, and 1.3 ml of a solution containing 20 mg/ml of PQQ triallyl ester was intraperitoneally administered to the rats of group H and furthermore, after lapse of 50 minutes, the same PQQ triesters in the same doses as above were intraperitoneally administered to respective rats. In these cases, the PQQ triesters were suspended in physiological saline containing 1% Tween 80 and administered to the rats. 1.3 ml of physiological saline was intraperitoneally administered to the rats of group B in place of PQQ triesters. […] Neither PQQ triesters nor carbon tetrachloride were administered to the rats of group A.
After 24 hours from administration of carbon tetrachloride, blood was collected from abdominal main artery and serum was obtained by centrifugation therefrom.
GPT, […] and amount of total bilirubin in the serum were measured by clinical examination reagent (trademark: FUJI DRYCHEMSLIDE manufactured by Fuji Photo Film Co., Ltd.). The results are shown in Table 6 by average value of five rats.

mice = test: Kidney toxicity determined by urine test; assay type: in vivo, mouse; conditions: for glucose in urine (in words): i.p., all doses
Procedure: (2) Kidney toxicity determined by urine test
PQQ.2Na, PQQ trimethyl ester and PQQ triallyl ester were intraperitoneally administered to mice and they were bred in the same manner as in the above acute toxicity test. The doses per kg of body weight of mouse were 20, 40 and 80 mg for PQQ.2Na and 20, 40, 80, 160 and 200 mg for PQQ triesters. Urine was collected every day and glucose concentration was examined using clinical examination reagent (trademark: […] II manufactured by Miles.Sankyo Co.).

COC(=O)c1cc(C(=O)OC)c2c(n1)C(=O)C(=O)c1cc(C(=O)OC)[nH]c1-2 [PQQ trimethyl ester]
Total bilirubin in serum ([1]; oral 5 mg/kg rat twice): 0.8 mg/dL
GPT in serum ([1]; oral 5 mg/kg rat twice): 431 U/l
GOT in serum ([1]; oral 5 mg/kg rat twice): 926 U/l
Total bilirubin in serum ([1]; oral 10 mg/kg rat twice): 0.7 mg/dL
GPT in serum ([1]; oral 10 mg/kg rat twice): 330 U/l
GOT in serum ([1]; oral 10 mg/kg rat twice): 540 U/l
Total bilirubin in serum ([1]; oral 15 mg/kg rat twice): 1.0 mg/dL
GPT in serum ([1]; oral 15 mg/kg rat twice): 701 U/l
GOT in serum ([1]; oral 15 mg/kg rat twice): 1260 U/l
Total bilirubin in serum ([2]; i.p. 10 mg/kg rat twice): 0.9 mg/dL
GPT in serum ([2]; i.p. 10 mg/kg rat twice): 479 U/l
GOT in serum ([2]; i.p. 10 mg/kg rat twice): 1263 U/l
Total bilirubin in serum ([2]; i.p. 50 mg/kg rat twice): 0.7 mg/dL
GPT in serum ([2]; i.p. 50 mg/kg rat twice): 645 U/l
GOT in serum ([2]; i.p. 50 mg/kg rat twice): 1543 U/l
Total bilirubin in serum ([2]; i.p. 100 mg/kg rat twice): 0.8 mg/dL
GPT in serum ([2]; i.p. 100 mg/kg rat twice): 676 U/l
GOT in serum ([2]; i.p. 100 mg/kg rat twice): 1605 U/l
glucose in urine (mice; i.p. 20 mg/kg, day 1): -
glucose in urine (mice; i.p. 20 mg/kg, day 2): -
glucose in urine (mice; i.p. 20 mg/kg, day 3): -
glucose in urine (mice; i.p. 20 mg/kg, day 6): -
glucose in urine (mice; i.p. 20 mg/kg, day 7): -
glucose in urine (mice; i.p. 20 mg/kg, day 8): -
glucose in urine (mice; i.p. 20 mg/kg, day 10): -
glucose in urine (mice; i.p. 20 mg/kg, day 13): -
glucose in urine (mice; i.p. 20 mg/kg, day 14): -
glucose in urine (mice; i.p. 40 mg/kg, day 1): -
glucose in urine (mice; i.p. 40 mg/kg, day 2): -
glucose in urine (mice; i.p. 40 mg/kg, day 3): -
glucose in urine (mice; i.p. 40 mg/kg, day 6): -
glucose in urine (mice; i.p. 40 mg/kg, day 7): -
glucose in urine (mice; i.p. 40 mg/kg, day 8): -
glucose in urine (mice; i.p. 40 mg/kg, day 10): -
glucose in urine (mice; i.p. 40 mg/kg, day 13): -
glucose in urine (mice; i.p. 40 mg/kg, day 14): -
glucose in urine (mice; i.p. 80 mg/kg, day 1): -
glucose in urine (mice; i.p. 80 mg/kg, day 2): -
glucose in urine (mice; i.p. 80 mg/kg, day 3): -
glucose in urine (mice; i.p. 80 mg/kg, day 6): -
glucose in urine (mice; i.p. 80 mg/kg, day 7): -
glucose in urine (mice; i.p. 80 mg/kg, day 8): -
glucose in urine (mice; i.p. 80 mg/kg, day 10): -
glucose in urine (mice; i.p. 80 mg/kg, day 13): -
glucose in urine (mice; i.p. 80 mg/kg, day 14): -
glucose in urine (mice; i.p. 160 mg/kg, day 1): -
glucose in urine (mice; i.p. 160 mg/kg, day 2): -
glucose in urine (mice; i.p. 160 mg/kg, day 3): -
glucose in urine (mice; i.p. 160 mg/kg, day 6): -
glucose in urine (mice; i.p. 160 mg/kg, day 7): -
glucose in urine (mice; i.p. 160 mg/kg, day 8): -
glucose in urine (mice; i.p. 160 mg/kg, day 10): -
glucose in urine (mice; i.p. 160 mg/kg, day 13): -
glucose in urine (mice; i.p. 160 mg/kg, day 14): -
glucose in urine (mice; i.p. 200 mg/kg, day 1): -
glucose in urine (mice; i.p. 200 mg/kg, day 2): -
glucose in urine (mice; i.p. 200 mg/kg, day 3): -
glucose in urine (mice; i.p. 200 mg/kg, day 6): -
glucose in urine (mice; i.p. 200 mg/kg, day 7): -
glucose in urine (mice; i.p. 200 mg/kg, day 8): -
glucose in urine (mice; i.p. 200 mg/kg, day 10): -
glucose in urine (mice; i.p. 200 mg/kg, day 13): -
glucose in urine (mice; i.p. 200 mg/kg, day 14): -
glucose in urine (in words) (mice): no glucose was detected

C=CCOC(=O)c1cc(C(=O)OCC=C)c2c(n1)C(=O)C(=O)c1cc(C(=O)OCC=C)[nH]c1-2 [PQQ triallyl ester]
Total bilirubin in serum ([1]; oral 5 mg/kg rat twice): 1.1 mg/dL
GPT in serum ([1]; oral 5 mg/kg rat twice): 619 U/l
GOT in serum ([1]; oral 5 mg/kg rat twice): 1409 U/l
Total bilirubin in serum ([1]; oral 10 mg/kg rat twice): 0.9 mg/dL
GPT in serum ([1]; oral 10 mg/kg rat twice): 570 U/l
GOT in serum ([1]; oral 10 mg/kg rat twice): 1184 U/l
Total bilirubin in serum ([1]; oral 15 mg/kg rat twice): 1.0 mg/dL
GPT in serum ([1]; oral 15 mg/kg rat twice): 593 U/l
GOT in serum ([1]; oral 15 mg/kg rat twice): 1742 U/l
Total bilirubin in serum ([2]; i.p. 10 mg/kg rat twice): 0.7 mg/dL
GPT in serum ([2]; i.p. 10 mg/kg rat twice): 323 U/l
GOT in serum ([2]; i.p. 10 mg/kg rat twice): 1186 U/l
Total bilirubin in serum ([2]; i.p. 50 mg/kg rat twice): 0.7 mg/dL
GPT in serum ([2]; i.p. 50 mg/kg rat twice): 583 U/l
GOT in serum ([2]; i.p. 50 mg/kg rat twice): 1270 U/l
Total bilirubin in serum ([2]; i.p. 100 mg/kg rat twice): 0.8 mg/dL
GPT in serum ([2]; i.p. 100 mg/kg rat twice): 576 U/l
GOT in serum ([2]; i.p. 100 mg/kg rat twice): 1563 U/l
glucose in urine (mice; i.p. 20 mg/kg, day 1): -
glucose in urine (mice; i.p. 20 mg/kg, day 2): -
glucose in urine (mice; i.p. 20 mg/kg, day 3): -
glucose in urine (mice; i.p. 20 mg/kg, day 6): -
glucose in urine (mice; i.p. 20 mg/kg, day 7): -
glucose in urine (mice; i.p. 20 mg/kg, day 8): -
glucose in urine (mice; i.p. 20 mg/kg, day 10): -
glucose in urine (mice; i.p. 20 mg/kg, day 13): -
glucose in urine (mice; i.p. 20 mg/kg, day 14): -
glucose in urine (mice; i.p. 40 mg/kg, day 1): -
glucose in urine (mice; i.p. 40 mg/kg, day 2): -
glucose in urine (mice; i.p. 40 mg/kg, day 3): -
glucose in urine (mice; i.p. 40 mg/kg, day 6): -
glucose in urine (mice; i.p. 40 mg/kg, day 7): -
glucose in urine (mice; i.p. 40 mg/kg, day 8): -
glucose in urine (mice; i.p. 40 mg/kg, day 10): -
glucose in urine (mice; i.p. 40 mg/kg, day 13): -
glucose in urine (mice; i.p. 40 mg/kg, day 14): -
glucose in urine (mice; i.p. 80 mg/kg, day 1): -
glucose in urine (mice; i.p. 80 mg/kg, day 2): -
glucose in urine (mice; i.p. 80 mg/kg, day 3): -
glucose in urine (mice; i.p. 80 mg/kg, day 6): -
glucose in urine (mice; i.p. 80 mg/kg, day 7): -
glucose in urine (mice; i.p. 80 mg/kg, day 8): -
glucose in urine (mice; i.p. 80 mg/kg, day 10): -
glucose in urine (mice; i.p. 80 mg/kg, day 13): -
glucose in urine (mice; i.p. 80 mg/kg, day 14): -
glucose in urine (mice; i.p. 160 mg/kg, day 1): -
glucose in urine (mice; i.p. 160 mg/kg, day 2): -
glucose in urine (mice; i.p. 160 mg/kg, day 3): -
glucose in urine (mice; i.p. 160 mg/kg, day 6): -
glucose in urine (mice; i.p. 160 mg/kg, day 7): -
glucose in urine (mice; i.p. 160 mg/kg, day 8): -
glucose in urine (mice; i.p. 160 mg/kg, day 10): -
glucose in urine (mice; i.p. 160 mg/kg, day 13): -
glucose in urine (mice; i.p. 160 mg/kg, day 14): -
glucose in urine (mice; i.p. 200 mg/kg, day 1): -
glucose in urine (mice; i.p. 200 mg/kg, day 2): -
glucose in urine (mice; i.p. 200 mg/kg, day 3): -
glucose in urine (mice; i.p. 200 mg/kg, day 6): -
glucose in urine (mice; i.p. 200 mg/kg, day 7): -
glucose in urine (mice; i.p. 200 mg/kg, day 8): -
glucose in urine (mice; i.p. 200 mg/kg, day 10): -
glucose in urine (mice; i.p. 200 mg/kg, day 13): -
glucose in urine (mice; i.p. 200 mg/kg, day 14): -
glucose in urine (in words) (mice): no glucose was detected

From patent US5061711A, “Method of curing liver diseases by using pyrrolo quinoline quinone triesters and novel pyrrolo quinoline quinone triesters” (Mitsubishi Gas Chemical Company, Inc., priority 1989, dated 1991)
